Converted amounts (≈) assume the structure as drawn. Like-named read-outs stand apart in the source and are kept apart here.
Experiments:
[1] = test system: Propionibacterium acnes JCM6425 strain; test: Minimum inhibitory concentration (MIC) against Propionibacterium, turbidity of culture; type: cell-based
Description: By the measurement of minimum inhibitory concentration (MIC), the ascorbic acid-2-phosphate zinc salt, the ascorbic acid-2-phosphate and zinc salt mixture and the ascorbic acid-2-glucoside and zinc salt mixture of the present invention were determined on their antibacterial action against Propionibacterium.
A platinum-loopful of cells of fresh Propionibacterium acnes JCM6425 strain were inoculated in a test tube containing 5 ml of GAM broth medium (produced by Nissui K.K.) previously sterilized and deaerated. Thereto, APZ, AP+Zn and AG+Zn prepared as in Examples 1 to 3, APM and AG, each diluted in a common ratio of 2 to have a concentration of from 10 to 0.078 mg/ml, were added and cultured at 35° C. for 72 hours under anaerobic conditions. After completion of cultivation, the test tube was thoroughly shaken and the turbidity of the culture solution was measured. The minimum concentration when the turbidity was not increased by cultivation was used as the minimum inhibitory concentration (MIC).

[2] = test system: Staphylococcus aureus IFO12732 strain; test: Minimum inhibitory concentration (MIC) against Staphylococcus, turbidity of culture; type: cell-based
Description: A platinum-loopful of cells of fresh Staphylococcus aureus IFO12732 strain were inoculated in a test tube containing 5 ml of nutrient broth medium (produced by Difco) previously sterilized and deaerated. […] After the completion of cultivation, the turbidity of the culture solution was measured. The minimum concentration when turbidity was not increased by the cultivation was used as the minimum inhibitory concentration (MIC).

[3] = test system: Pseudomonas-derived lipase type XIII; test: Lipase inhibitory activity (1), paranitrophenyl palmitate substrate; type: biochemical; details: for Inhibitory Ratio: Pseudomonas lipase, pH 7.0, 30° C., 10 minutes
Description: The activity of inhibiting lipase derived from Pseudomonas of the ascorbic acid-2-phosphate zinc salt, the ascorbic acid-2-phosphate and zinc salt mixture and the ascorbic acid-2-glucoside and zinc salt mixture of the present invention was examined.
Pseudomonas-derived lipase type XIII (produced by Sigma) was dissolved in 100 mM phosphate buffer (pH: 7.0) to have a final concentration of 43 mU/ml. 2 ml of the resulting solution was poured in a small test tube and thereto, APZ, AP+Zn and AG+Zn prepared as in Examples 1 to 3, APM and AG were added each to have concentrations of 1 mg/ml and 10 mg/ml. The reaction was started by addition of a substrate paranitrophenyl palmitate at a final concentration of 0.14 mg/ml. The reaction was performed at 30° C. for 10 minutes under shaking. After completion of the reaction, the absorbance at a wavelength of 405 nm was measured and the difference from the absorbance of a control test tube where the substrate was not present was used as the activity. The ratio between activity when a sample was present and activity when the sample was not present was calculated as the inhibitory ratio of each sample and the values obtained were compared.

[4] = test system: lipase derived from Propionibacterium; test: Lipase inhibitory activity (2), partially purified lipase, paranitrophenyl palmitate substrate; type: biochemical, Propionibacterium acnes JCM6425; details: for Inhibitory Ratio: P. acnes lipase, pH 6.5, 30° C., 120 minutes
Description: The activity of inhibiting lipase derived from Propionibacterium of the ascorbic acid-2-phosphate zinc salt, the ascorbic acid-2-phosphate and zinc salt mixture and the ascorbic acid-2-glucoside and zinc salt mixture of the present invention was examined.
(§1) The culture solution of Propionibacterium acnes JCM6425 cultured in the same manner as in Example 7 was dialyzed with 50 mM phosphate buffer, then concentrated to about 1/10 the amount using an ultrafiltration film having a fraction molecular weight of 10,000 and used as the lipase partially purified product.
To 1.9 ml of 50 mM HEPES buffer (pH: 6.5) separately placed in a small test tube, 0.1 ml of the lipase partially purified product was added and thereto, APZ, AP+Zn and AG+Zn prepared in Examples 1 to 3, APM and AG were added each to have concentrations of 0.1 mg/ml, 1 mg/ml and 10 mg/ml. The reaction was started by addition of a substrate paranitrophenyl palmitate at a final concentration of 0.14 mg/ml. The reaction was performed at 30° C. for 120 minutes under shaking. After completion of the reaction, the absorbance at a wavelength of 405 nm was measured and the difference from the absorbance of a control test tube where the substrate was not present was used as the activity. The ratio between activity when a sample was present and activity when the sample was not present was calculated as the inhibitory ratio of each sample and the values obtained were compared.

[5] = test system: hyaluronidase derived from Propionibacterium; test: Hyaluronidase inhibitory activity, partially purified enzyme, hyaluronic acid substrate; type: biochemical, Propionibacterium acnes JCM6425; details: for Inhibitory Ratio: P. acnes hyaluronidase, pH 7.0, 30° C., 15 minutes
Description: The activity of inhibiting hyaluronidase derived from Propionibacterium of the ascorbic acid-2-phosphate zinc salt, the ascorbic acid-2-phosphate and zinc salt mixture and the ascorbic acid-2-glucoside and zinc salt mixture of the present invention was examined.
as §1, with “a membrane” for “an ultrafiltration film”, “hyaluronidase” for “lipase”
To 1.8 ml of 50 mM HEPES buffer (pH: 7.0) separately placed in a small test tube, 0.2 ml of the […] partially purified product was added and thereto, APZ, AP+Zn and AG+Zn prepared in Examples 1 to 3, APM and AG were added each to have concentrations of 0.1 mg/ml, 1 mg/ml and 10 mg/ml. The reaction was started by addition of a substrate hyaluronic acid at a final concentration of 0.8 mg/ml. The reaction was performed at 30° C. for 15 minutes under shaking. After the shaking, 0.1 ml of 0.2M potassium tetraborate was added, kept at 100° C. for 3 minutes and cooled. To this solution, 3 ml of a paradimethylaminobenzaldehyde reagent (obtained by mixing and dissolving 10 g of dimethylaminobenzaldehyde, 12.5 ml of 10N hydrochloric acid and 77.5 ml of glacial acetic acid) 10 times diluted with glacial acetic acid was added and left standing at 37° C. for 20 minutes to allow reaction with N-acetylglucosamine liberated to proceed and thereby cause coloring. The absorbance at a wavelength of 544 nm was measured and the difference from the absorbance of a control test tube where the substrate was not present was used as the activity. The ratio between activity when a sample was present and activity when the sample was not present was calculated as the inhibitory ratio of each sample and the values obtained were compared.

SMILES | MIC ([1]; Propionibacterium acnes JCM6425, GAM broth, 35° C., 72 hours, anaerobic) [µg/mL] | MIC ([2]; Staphylococcus aureus IFO12732, nutrient broth, 35° C., 48 hours, shaking) [µg/mL] | Inhibitory Ratio ([3]; sample 1 mg/ml) [%] | Inhibitory Ratio ([3]; sample 10 mg/ml) [%] | Inhibitory Ratio ([4]; sample 0.1 mg/ml) [%] | Inhibitory Ratio ([4]; sample 1 mg/ml) [%] | Inhibitory Ratio ([4]; sample 10 mg/ml) [%] | Inhibitory Ratio ([5]; sample 0.1 mg/ml) [%] | Inhibitory Ratio ([5]; sample 1 mg/ml) [%] | Inhibitory Ratio ([5]; sample 10 mg/ml) [%] | MIC ([1]; Cutibacterium acnes, Propionibacterium acnes JCM6425, GAM broth, 35° C., 72 hours, anaerobic, read-out: MIC) [µg/mL] | MIC ([2]; Staphylococcus aureus IFO12732, nutrient broth, 35° C., 48 hours, shaking, read-out: MIC) [µg/mL] | MIC ([1]; Cutibacterium acnes, JCM6425, 72 h) [µg/mL] | antibacterial activity against Propionibacterium (in words) ([1]; summary of Table 1) | MIC ([2]; Staphylococcus aureus, IFO12732, 48 h) [µg/mL] | antibacterial action against Staphylococcus (in words) ([2]; summary of Table 2) | lipase inhibitory activity (in words) ([3]; Pseudomonas-derived lipase, summary of Table 3) | lipase inhibitory activity (in words) ([4]; Propionibacterium-derived lipase, summary of Table 4) | hyaluronidase inhibitory activity (in words) ([5]; Propionibacterium-derived hyaluronidase, summary of Table 5)
O=C1O[C@H]([C@@H](O)CO)C(O)=C1O[C@H]1O[C@H](CO)[C@@H](O)[C@H](O)[C@H]1O [AG, L-ascorbic acid-2-O-glucoside] | >10000 | 10000 (≈ 29.6 mM) | 0 | 0 | 0 | 0 | 0 | 10 | 13 | 22 | – | – | – | – | – | – | – | – | –
O=C1O[C@H]([C@@H](O)CO)C(O)=C1OP(=O)([O-])[O-].[Mg+2] [APM, L-ascorbic acid-2-phosphate magnesium salt] | – | – | 0 | 0 | 0 | 0 | 0 | 22 | 32 | 34 | > 10000 | 10000 | – | – | – | – | – | – | –
O=C1OC(C(O)CO)C2=C1OP(=O)([O][Zn][O]P1(=O)[O][Zn][O]C3=C(O1)C(=O)OC3C(O)CO)[O][Zn][O]2 (centres unmarked) | – | – | 76 | 98 | 93 | 100 | 100 | 80 | 98 | 100 | – | – | 313 | verified to have antibacterial activity | 625 | verified to have antibacterial action | verified to have lipase inhibitory activity | verified to have strong lipase inhibitory activity | verified to have strong hyaluronidase inhibitory activity

Reference: patent US20030162760A1 (priority 1999, published 2003)
